This is an account of results in paper PMC3129543 (Molecular informatics, 2011).

The target in data set [1] is T1, glutamate racemase from Bacillus subtilis (RacE) (Bacillus subtilis, UniProt P94556). It is filed as biochemical.
The conditions of data set [2]: 1 and derivatives thereof; cited from earlier work.
The conditions of data set [3]: 1 and derivatives thereof; target not determined; cited from earlier work.
In data set [4] the target is T1, glutamate racemase from Bacillus subtilis (RacE). The following applies: BsGR; presented previously; cited from earlier work.

Each structure is given as a SMILES string. Like-named read-outs stand apart in the source and are kept apart here.

T1 sequence (P94556 whole entry): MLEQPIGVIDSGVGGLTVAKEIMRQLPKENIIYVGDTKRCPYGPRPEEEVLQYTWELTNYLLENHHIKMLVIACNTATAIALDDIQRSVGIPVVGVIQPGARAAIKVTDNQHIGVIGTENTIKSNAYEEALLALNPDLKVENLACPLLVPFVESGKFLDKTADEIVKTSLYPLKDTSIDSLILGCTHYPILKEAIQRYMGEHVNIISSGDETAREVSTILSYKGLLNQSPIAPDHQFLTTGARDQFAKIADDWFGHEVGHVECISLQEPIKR

The compound `O=S(=O)(O)c1nc2ccccc2[nH]1` [Compound 1, benzimidazole-2-sulfonic acid] had a ligand efficiency in data set [1] of 0.53 kcal/mol/heavy atom. Further, the mode of inhibition result in data set [1] (verified by global fitting to varying inhibition models) was “competitive inhibitor”. The toxicity result in data set [2] is on record as “low toxicity”. Also, the “antibacterial and antifungal activity” value in data set [3] was “antibacterial and antifungal activity”.
Regarding `O=c1c(O)c(O)c(=O)c1=O` [Compound 2, Croconic acid], the mode of inhibition entry in data set [4] is given as “competitive inhibitors”.
Turning to `O=S(=O)(O)c1ccc(O)c(S(=O)(=O)O)c1` [Compound 3, 4-Hydroxy-1,3-benzenedisulfonic acid], in data set [4], the mode of inhibition entry is listed as “competitive inhibitors”.
For `O=C(O)c1cccc(C(=O)O)n1` [Compound 9, dipicolinic acid], the mode of inhibition entry in data set [4] was “competitive inhibitors”.
